This note sets out measurements from patent publication US8969389B2, “Substituted 6-methylnicotinamides as mGluR5 positive allosteric modulators” (Vanderbilt University, priority 2010, dated 2015).

The first test deals with T1, human mGluR5 (Homo sapiens, UniProt P41594).
T1 construct: expressed in transfected cells; host or cells: HEK cells, H10H cell line
T1 sequence (P41594 21-1212): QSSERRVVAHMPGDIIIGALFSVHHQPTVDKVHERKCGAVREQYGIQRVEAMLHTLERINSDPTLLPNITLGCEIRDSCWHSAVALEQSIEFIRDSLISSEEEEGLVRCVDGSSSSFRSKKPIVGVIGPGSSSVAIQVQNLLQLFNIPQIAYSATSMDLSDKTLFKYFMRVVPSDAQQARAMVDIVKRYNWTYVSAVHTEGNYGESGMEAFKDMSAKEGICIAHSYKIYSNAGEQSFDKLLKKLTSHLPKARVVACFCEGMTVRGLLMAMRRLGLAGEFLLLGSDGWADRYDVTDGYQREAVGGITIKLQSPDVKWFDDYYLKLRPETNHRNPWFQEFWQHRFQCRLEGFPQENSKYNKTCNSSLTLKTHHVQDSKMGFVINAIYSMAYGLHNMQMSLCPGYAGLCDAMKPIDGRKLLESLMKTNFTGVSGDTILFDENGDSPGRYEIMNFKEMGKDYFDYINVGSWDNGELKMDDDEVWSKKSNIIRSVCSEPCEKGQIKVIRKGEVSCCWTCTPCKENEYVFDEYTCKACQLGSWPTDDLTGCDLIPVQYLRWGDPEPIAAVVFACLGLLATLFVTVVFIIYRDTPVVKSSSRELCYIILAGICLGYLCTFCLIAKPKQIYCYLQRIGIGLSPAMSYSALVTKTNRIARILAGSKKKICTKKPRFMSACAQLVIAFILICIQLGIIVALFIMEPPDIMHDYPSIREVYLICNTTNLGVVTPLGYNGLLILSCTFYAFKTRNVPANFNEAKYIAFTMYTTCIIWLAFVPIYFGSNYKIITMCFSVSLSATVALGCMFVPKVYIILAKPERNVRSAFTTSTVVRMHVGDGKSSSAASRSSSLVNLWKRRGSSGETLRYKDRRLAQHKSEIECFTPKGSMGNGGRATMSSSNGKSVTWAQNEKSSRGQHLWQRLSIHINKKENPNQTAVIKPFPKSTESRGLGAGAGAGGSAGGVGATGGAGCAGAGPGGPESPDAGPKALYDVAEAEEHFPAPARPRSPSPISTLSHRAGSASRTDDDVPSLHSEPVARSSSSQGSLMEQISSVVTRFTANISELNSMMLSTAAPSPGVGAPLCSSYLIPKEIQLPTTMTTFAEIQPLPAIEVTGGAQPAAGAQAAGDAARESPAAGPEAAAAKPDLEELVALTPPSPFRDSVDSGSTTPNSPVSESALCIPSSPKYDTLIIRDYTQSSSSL
In words: Potentiation of glutamate response in HEK cells transfected with human mGluR5 (H10H cell line), Ca2+ fluorescence, FDSS. It is filed as cell-based. The settings on record: read-out: hmGluR5 EC50 (H10H cell line). Here is the method:
(§1) Human embryonic kidney (HEK) cells transfected with rat mGluR5 were plated in clear bottom assay plates for assay in a Functional Drug Screening System (FDSS). In the alternative assay, HEK cells transfected with human mGluR5 (H10H cell line) were plated for assay in the FDSS. […] The cells were loaded with a Ca^2+-sensitive fluorescent dye (e.g., Fluo-4), and the plates were washed and placed in the FDSS instrument. After establishment of a fluorescence baseline for twelve seconds, the compounds of the present invention were added to the cells, and the response in cells was measured. Five minutes later, an mGluR5 agonist (e.g., glutamate, 3,5-dihydroxyphenylglycine, or quisqualate) was added to the cells, and the response of the cells was measured. Potentiation of the agonist response of mGluR5 by the compounds in the present invention was observed as an increase in response to non-maximal concentrations of agonist (here, glutamate) in the presence of compound compared to the response to agonist in the absence of compound.
(§2) The above described assay operated in two modes. In the first mode, a range of concentrations of the present compounds were added to cells, followed by a single fixed concentration of agonist. If a compound acted as a potentiator, an EC50 value for potentiation and a maximum extent of potentiation by the compound at this concentration of agonist was determined by non-linear curve fitting. In the second mode, several fixed concentrations of the present compounds were added to various wells on a plate, followed by a range of concentrations of agonist for each concentration of present compound; the EC50 values for the agonist at each concentration of compound were determined by non-linear curve fitting. A decrease in the EC50 value of the agonist with increasing concentrations of the present compounds (a leftward shift of the agonist concentration-response curve) is an indication of the degree of mGluR5 potentiation at a given concentration of the present compound. An increase in the EC50 value of the agonist with increasing concentrations of the present compounds (a rightward shift of the agonist concentration-response curve) is an indication of the degree of mGluR5 antagonism at a given concentration of the present compound. The second mode also indicates whether the present compounds also affect the maximum response to mGluR5 to agonists.
One may read the EC50 as the concentration needed to bring the measured effect to its halfway point. Regarding `O=C(N[C@@H]1C[C@H]2CC[C@@H]1C2)c1ccc(COc2cccc(F)c2)nc1`, the EC50 came out at 0.17 µM.

Turning to `CC(NC(=O)c1ccc(COc2cccc(F)c2)nc1)C1CCCOC1` (centres unmarked), the EC50 is 0.44 µM. Same read-out and setting: for `O=C(N[C@H]1C[C@@H]2CC[C@H]1C2)c1ccc(COc2cccc(F)c2)nc1` the value was 0.55 µM.

On to `O=C(N[C@H]1C[C@H]2CC[C@@H]1C2)c1ccc(COc2cccc(F)c2)nc1`, for which the EC50 was 0.73 µM. On to `C[C@@H](NC(=O)c1ccc(COc2ccnc(Cl)c2)nc1)C1CCCCC1`, for which the EC50 was 1.5 µM. The same measure, in the same setting: under `CC(NC(=O)c1ccc(COc2cccc(F)c2)nc1)C1CCCCO1` (centres unmarked) stands 1.9 µM. Take `C[C@@H](NC(=O)c1ccc(COc2ccnc(Cl)c2)nc1)C(C)(C)C`: the EC50 amounted to 2.3 µM. The same measure, in the same setting: under `C[C@@H](NC(=O)c1ccc(COc2cncc(F)c2)nc1)C1CCCCC1` stands 2.7 µM; under `CC(NC(=O)c1ccc(COc2cccc(F)c2)nc1)C(F)(F)F` (centres unmarked), 3.2 µM.

For the compound `CC(NC(=O)c1ccc(COc2cccc(F)c2)nc1)c1nccs1` (centres unmarked), the EC50 was more than 10 µM. For `O=C(N[C@@H]1C[C@@H]2CC[C@H]1C2)c1ccc(COc2cccc(F)c2)nc1`, the EC50 was more than 10 µM. Turning to `CC1(O)CC(NC(=O)c2ccc(COc3cccc(F)c3)nc2)C1` (centres unmarked), the EC50 was more than 10 µM. Same read-out and setting: under `O=C(NC(c1ccccn1)C(F)(F)F)c1ccc(COc2cccc(F)c2)nc1` (centres unmarked) stands more than 10 µM; under `O=C(NC(c1ccc(F)cc1)C(F)(F)F)c1ccc(COc2cccc(F)c2)nc1` (centres unmarked), more than 10 µM; under `O=C(NC1(c2ccccn2)CC1)c1ccc(COc2cccc(F)c2)nc1`, more than 10 µM.

As to `CC1(CCNC(=O)c2ccc(COc3cccc(F)c3)nc2)COC1`, the EC50 was more than 10 µM. Turning to `C[C@@H](NC(=O)c1ccc(COc2cncc(Cl)c2)nc1)C1CCCCC1`, the EC50 was more than 10 µM. The same measure, in the same setting: for `C[C@@H](NC(=O)c1ccc(COc2cncc(C(F)(F)F)c2)nc1)C1CCCCC1` the value was more than 10 µM; for `Cc1cc(OCc2ccc(C(=O)N[C@H](C)C3CCCCC3)cn2)ccn1`, more than 10 µM. The same measure, in the same setting: for `C[C@@H](NC(=O)c1ccc(COc2cncc(Cl)c2)nc1)C(C)(C)C` the value was more than 10 µM. On the same count and under the same terms, for `C[C@@H](NC(=O)c1ccc(COc2cncc(F)c2)nc1)C(C)(C)C` the value was more than 10 µM; for `C[C@@H](NC(=O)c1ccc(COc2cncc(C(F)(F)F)c2)nc1)C(C)(C)C`, more than 10 µM. As for `Cc1cc(OCc2ccc(C(=O)N[C@H](C)C(C)(C)C)cn2)ccn1`, the EC50 is more than 10 µM. Same read-out and setting: for `CC(NC(=O)c1ccc(COc2cccc(F)c2)nc1)C(C)(C)O` (centres unmarked) the value was more than 10 µM; for `CC1(CNC(=O)c2ccc(COc3cccc(F)c3)nc2)COC1`, more than 10 µM; for `C[C@@H](N(C)C(=O)c1ccc(COc2cccc(F)c2)nc1)C(C)(C)C`, more than 10 µM. Same read-out and setting: for `C[C@@H](NC(=O)c1ccc(COc2cncnc2)nc1)C(C)(C)C` the value was more than 10 µM; for `O=C(NC1CC(O)(C(F)(F)F)C1)c1ccc(COc2cccc(F)c2)nc1` (centres unmarked) [drawing 172], more than 10 µM; for `O=C(NC1CC(O)(C(F)(F)F)C1)c1ccc(COc2cccc(F)c2)nc1` (centres unmarked) [drawing 173], more than 10 µM.

Consider `C[C@H](NC(=O)c1ccc(COc2cccc(F)c2)nc1)C(C)(C)C` [drawing 189], for which the EC50 is more than 10 µM.

The target in another test is T2, rat mGluR5 (Rattus norvegicus, UniProt P31424).
T2 construct: expressed in transfected cells; host or cells: HEK (human embryonic kidney) cells
T2 sequence (P31424 21-1203): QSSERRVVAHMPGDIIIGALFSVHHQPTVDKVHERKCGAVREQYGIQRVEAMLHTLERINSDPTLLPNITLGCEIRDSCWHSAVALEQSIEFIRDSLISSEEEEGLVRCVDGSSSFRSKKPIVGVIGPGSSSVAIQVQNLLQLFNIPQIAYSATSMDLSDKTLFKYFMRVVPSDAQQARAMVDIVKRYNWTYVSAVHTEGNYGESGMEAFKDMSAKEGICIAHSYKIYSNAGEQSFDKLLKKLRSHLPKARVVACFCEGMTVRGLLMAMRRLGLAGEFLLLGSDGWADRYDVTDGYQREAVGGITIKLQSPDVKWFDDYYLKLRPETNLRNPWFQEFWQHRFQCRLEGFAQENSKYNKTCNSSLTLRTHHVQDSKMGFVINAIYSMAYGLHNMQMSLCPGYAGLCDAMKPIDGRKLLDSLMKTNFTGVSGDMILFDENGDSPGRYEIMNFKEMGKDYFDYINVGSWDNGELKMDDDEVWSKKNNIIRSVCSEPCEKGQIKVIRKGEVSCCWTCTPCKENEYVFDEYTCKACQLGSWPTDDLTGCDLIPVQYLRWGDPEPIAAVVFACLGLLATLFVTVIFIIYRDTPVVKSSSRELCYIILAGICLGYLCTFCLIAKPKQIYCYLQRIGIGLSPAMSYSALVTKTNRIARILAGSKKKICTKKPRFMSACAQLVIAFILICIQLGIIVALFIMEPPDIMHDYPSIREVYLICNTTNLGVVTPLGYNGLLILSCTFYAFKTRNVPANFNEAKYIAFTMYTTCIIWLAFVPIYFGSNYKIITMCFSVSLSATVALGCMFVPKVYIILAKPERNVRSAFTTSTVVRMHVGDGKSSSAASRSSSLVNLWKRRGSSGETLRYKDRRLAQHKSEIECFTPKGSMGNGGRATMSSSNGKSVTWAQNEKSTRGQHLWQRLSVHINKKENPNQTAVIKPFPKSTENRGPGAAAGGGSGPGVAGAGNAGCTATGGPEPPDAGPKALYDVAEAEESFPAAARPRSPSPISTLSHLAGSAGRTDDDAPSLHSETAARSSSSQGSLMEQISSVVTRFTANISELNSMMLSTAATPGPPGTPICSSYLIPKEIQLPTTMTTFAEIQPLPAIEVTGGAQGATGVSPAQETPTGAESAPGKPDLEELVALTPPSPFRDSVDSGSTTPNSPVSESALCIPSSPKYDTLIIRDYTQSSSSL
The experiment in a line: Potentiation of glutamate response in HEK cells transfected with rat mGluR5 (Ca2+ fluorescence, FDSS). It is filed as cell-based. The settings on record: (R) and (S) enantiomers, Tables 3A/3B; read-out: mGluR5 EC50. The procedure:
as §1, §2
With `C[C@@H](NC(=O)c1ccc(COc2cccc(F)c2)nc1)C(C)(C)C` [Example 13a, (R)-N-(3,3-dimethylbutan-2-yl)-6-((3-fluorophenoxy)methyl)nicotinamide], the EC50 came out at 0.081 µM.

As to `C[C@H](NC(=O)c1ccc(COc2cccc(F)c2)nc1)C(C)(C)C` [Example 13b, (S)-N-(3,3-dimethylbutan-2-yl)-6-((3-fluorophenoxy)methyl)nicotinamide], the EC50 is more than 10 µM.

Staying with this test, now noted: HEK cells transfected with rat mGluR5; read-out: rmGlu5 PAM EC50.
As to `C[C@@H](NC(=O)c1ccc(COc2cccc(F)c2)nc1)C(C)(C)C` [drawing 65], the EC50 was 0.0813 µM.

Turning to `O=C(NC1CC2CCC1C2)c1ccc(COc2ccccc2)nc1` (centres unmarked) [drawing 66], the EC50 is 0.12 µM. As for `C[C@@H](NC(=O)c1ccc(COc2cccc(F)c2)nc1)C1CCCCC1` [drawing 67], the 50% effective concentration (EC50) worked out at 0.13 µM. Still for that read-out and setting: under `C[C@@H](NC(=O)c1ccc(COc2ccccc2)nc1)C1CCCCC1` [drawing 69] stands 0.146 µM; under `O=C(NC1CC2CCC1C2)c1ccc(COc2ccccc2)nc1` (centres unmarked) [drawing 70], 0.151 µM; under `C[C@@H](NC(=O)c1ccc(COc2cccc(F)c2)nc1)C1CCCCC1` [drawing 73], 0.17 µM.

In the case of `C[C@@H](NC(=O)c1ccc(COc2cccc(F)c2)nc1)C1CCCCC1` [drawing 74], the EC50 was 0.172 µM. The same measure, in the same setting: for `C[C@@H](NC(=O)c1ccc(COc2ccccc2)nc1)C1CCCCC1` [drawing 78] the value was 0.257 µM; for `C[C@@H](NC(=O)c1ccc(COc2cc(F)cc(F)c2)nc1)C1CCCCC1` [drawing 81], 0.309 µM; for `C[C@@H](NC(=O)c1ccc(COc2cccnc2)nc1)C1CCCCC1` [drawing 107], 4.5 µM. On the same count and under the same terms, for `C[C@@H](NC(=O)c1ccc(COc2cccnc2)nc1)C1CCCCC1` [drawing 109] the value was 4.9 µM; for `O=C(NC1CCc2ccccc21)c1ccc(COc2ccccc2)nc1` (centres unmarked) [drawing 113], more than 10 µM; for `O=C(NC1CCc2ccccc21)c1ccc(COc2ccccc2)nc1` (centres unmarked) [drawing 138], more than 10 µM. Take `C[C@H](NC(=O)c1ccc(COc2cc(F)cc(F)c2)nc1)C1CCCCC1` [drawing 149]: the EC50 was more than 10 µM.

As to `C[C@H](NC(=O)c1ccc(COc2cccc(F)c2)nc1)C1CCCCC1` [drawing 152], the EC50 was more than 10 µM.
